Measured values reported in patent publication US20110190235A1, “BORON-CONTAINING SMALL MOLECULES AS ANTIPROTOZOAL AGENTS” (Anacor Pharmaceuticals, Inc., priority 2009, published 2011).
In brackets after ≈: the same amount, converted by molar mass. Where two headings read alike, the source gives them in different places.

How the values were obtained:
[1] = tested on: bloodstream-form trypanosome T. brucei brucei 427 strain; assay: Trypanosoma brucei brucei high-throughput in vitro drug sensitivity assay (resazurin); type: cell-based; conditions: for IC50: Trypanosoma brucei; for Selectivity Index (L929 IC50 / T. b. brucei IC50): T. b. brucei vs L929
[2] = L929 cytotoxicity evaluation (resazurin); type: cell-based; conditions: mouse, 72 hrs incubation, read-out: Cytotox L-929 IC50
Description: For evaluation of compound effects on mammalian cells, L929 mouse fibroblast cells were used. Cells were maintained as adherent cultures in T-25 vented cap flasks in a humidified incubator at 37° C. in the presence of 5% CO2. Culture media was D-MEM supplemented with 10% fetal bovine serum and 1% penicillin/streptomycin. L929 cells were maintained below confluent levels by sub-culturing at 1:10 dilution twice weekly using 0.05% trypsin for detachment.
Sub-confluent L929 cells were trypsinized, resuspended in fresh media and 10 uL was counted using hemocytometer to determine cell concentration. Cells were diluted to 1×10^4/mL in DMEM, dispensed (100 uL) into 96-well plates using a Multidrop 384 dispenser and allowed to attach overnight. Spent media was replaced with 99.5 uL fresh D-MEM and compounds to be tested were serially diluted in DMSO and 0.5 uL added using a Biomek NX liquid handler. Plates were incubated with compounds for 72 hrs at 37° C. with 5% CO2. Resazurin (20 uL of 12.5 mg/ml stock) from Sigma-Aldrich was added to each well and plates were incubated for an additional 3-4 hrs. Assay plates were read using an EnVision plate reader at an excitation wavelength of 544 nm and emission of 590 nm. Single data points were used to generate sigmoidal dose response curves and determine IC50 values using XLfit curve fitting software from IDBS (Guildford, UK).

[3] = 72 hrs incubation, read-out: T.b. brucei IC50
[4] = 72 hrs incubation, read-out: T. b. brucei IC50

COc1ccc(C(=O)Nc2ccc3c(c2)B(O)OC3(C)C)cc1C [compound 95, N-(1-Hydroxy-3,3-dimethyl-1,3-dihydro-benzo[c][1,2]oxaborol-6-yl)-4-methoxy-3-methyl-benzamide]
IC50 [1, 3]: 0.86 µg/mL
IC50 at 72 h ([2]; L929 mouse fibroblast cells): > 10 µg/mL

Cc1cc(F)ccc1C(=O)Nc1ccc2c(c1)B(O)OC2(C)C [compound 87, 4-Fluoro-N-(1-hydroxy-3,3-dimethyl-1,3-dihydro-benzo[c][1,2]oxaborol-6-yl)-2-methyl-benzamide]
IC50 [1, 3]: 3.88 µg/mL
IC50 at 72 h ([2]; L929 mouse fibroblast cells): > 10 µg/mL

COc1ccc(C(=O)Nc2ccc3c(c2)B(O)OC3(C)C)c(OC)c1 [compound 94]
IC50 [1, 3]: 0.4 µg/mL
IC50 at 72 h ([2]; L929 mouse fibroblast cells): > 10 µg/mL

CC1(C)OB(O)c2cc(NC(=O)c3ccc(C(F)(F)F)cc3)ccc21 [compound 36, N-(1-Hydroxy-3,3-dimethyl-1,3-dihydro-benzo[c][1,2]oxaborol-6-yl)-4-trifluoromethyl-benzamide]
IC50 [1, 3]: 4.05 µg/mL
IC50 at 72 h ([2]; L929 mouse fibroblast cells): > 10 µg/mL

CCCc1ccc(C(=O)Nc2ccc3c(c2)B(O)OC3(C)C)cc1 [compound 31, N-(1-Hydroxy-3,3-dimethyl-1,3-dihydro-benzo[c][1,2]oxaborol-6-yl)-4-propyl-benzamide]
IC50 [1, 3]: 0.397 µg/mL
IC50 at 72 h ([2]; L929 mouse fibroblast cells): > 10 µg/mL

CC1(C)OB(O)c2cc(NC(=O)C(F)(F)C(F)(F)C(F)(F)F)ccc21 [compound 131, 2,2,3,3,4,4,4-Heptafluoro-N-(1-hydroxy-3,3-dimethyl-1,3-dihydro-benzo[c][1,2]oxaborol-6-yl)-butyramide]
IC50 ([1]; 72 h, read-out: T.b. brucei IC50 (ug/mL)): > 5 µg/mL
IC50 at 72 h [2]: > 10 µg/mL

CC1(C)OB(O)c2cc(NC(=O)c3ccc(Cl)c(Cl)c3)ccc21 [compound 67, 3,4-Dichloro-N-(1-hydroxy-3,3-dimethyl-1,3-dihydro-benzo[c][1,2]oxaborol-6-yl)-benzamide]
IC50 [1, 3]: > 5 µg/mL
IC50 at 72 h ([2]; L929 mouse fibroblast cells): > 10 µg/mL

CC1(C)OB(O)c2cc(NC(=O)c3c(Cl)cccc3Cl)ccc21 [compound 68, 2,6-Dichloro-N-(1-hydroxy-3,3-dimethyl-1,3-dihydro-benzo[c][1,2]oxaborol-6-yl)-benzamide]
IC50 [1, 3]: 2.23 µg/mL
IC50 at 72 h ([2]; L929 mouse fibroblast cells): > 10 µg/mL

CC1(C)OB(O)c2cc(NC(=O)c3cc(Cl)ccc3F)ccc21 [compound 72, 5-Chloro-2-fluoro-N-(1-hydroxy-3,3-dimethyl-1,3-dihydro-benzo[c][1,2]oxaborol-6-yl)-benzamide]
IC50 [1, 3]: 0.407 µg/mL
IC50 at 72 h ([2]; L929 mouse fibroblast cells): > 10 µg/mL

CC1(C)OB(O)c2cc(NC(=O)c3ccc(F)cc3Br)ccc21 [compound 74, 2-Bromo-4-fluoro-N-(1-hydroxy-3,3-dimethyl-1,3-dihydro-benzo[c][1,2]oxaborol-6-yl)-benzamide]
Selectivity Index (L929 IC50 / T. b. brucei IC50) [1]: >18
IC50 [1, 4]: 1490 nM
IC50 [1, 3]: 0.564 µg/mL
IC50 at 72 h ([2]; L929 mouse fibroblast cells): > 10 µg/mL

COC(=O)c1ccc(C(=O)Nc2ccc3c(c2)B(O)OC3(C)C)cc1 [compound 58, N-(1-Hydroxy-3,3-dimethyl-1,3-dihydro-benzo[c][1,2]oxaborol-6-yl)-terephthalamic acid methyl ester]
IC50 [1, 3]: 1.11 µg/mL
IC50 at 72 h ([2]; L929 mouse fibroblast cells): > 10 µg/mL

CC1(C)OB(O)c2cc(NC(=O)c3cnccn3)ccc21 [compound 119, Pyrazine-2-carboxylic acid (1-hydroxy-3,3-dimethyl-1,3-dihydro-benzo[c][1,2]oxaborol-6-yl)-amide]
IC50 [1, 3]: > 5 µg/mL
IC50 at 72 h ([2]; L929 mouse fibroblast cells): > 10 µg/mL

CC(C)=Cc1ccc(C(=O)Nc2ccc3c(c2)B(O)OC3(C)C)c(Cl)c1 [compound 99, 2-Chloro-N-(1-hydroxy-3,3-dimethyl-1,3-dihydro-benzo[c][1,2]oxaborol-6-yl)-4-(2-methyl-propenyl)-benzamide]
IC50 [1, 3]: 0.19 µg/mL
IC50 at 72 h ([2]; L929 mouse fibroblast cells): 8.6 µg/mL (≈ 23.3 µM)

CC1(C)OB(O)c2cc(NC(=O)c3ccc(C(F)(F)F)cc3F)ccc21 [compound 84, 2-Fluoro-N-(1-hydroxy-3,3-dimethyl-1,3-dihydro-benzo[c][1,2]oxaborol-6-yl)-4-trifluoromethyl-benzamide]
IC50 [1, 3]: 0.533 µg/mL
IC50 at 72 h ([2]; L929 mouse fibroblast cells): > 10 µg/mL

CC1(C)OB(O)c2cc(NC(=O)c3cc(C(F)(F)F)ccc3F)ccc21 [compound 85, 2-Fluoro-N-(1-hydroxy-3,3-dimethyl-1,3-dihydro-benzo[c][1,2]oxaborol-6-yl)-5-trifluoromethyl-benzamide]
IC50 [1, 3]: 1.14 µg/mL
IC50 at 72 h ([2]; L929 mouse fibroblast cells): > 10 µg/mL

COc1cccc(C(=O)Nc2ccc3c(c2)B(O)OC3C)c1 (centres unmarked) [compound 6, N-(1-Hydroxy-3-methyl-1,3-dihydro-benzo[c][1,2]oxaborol-6-yl)-3-methoxy-benzamide]
Selectivity Index (L929 IC50 / T. b. brucei IC50) [1]: >217
IC50 [1, 4]: 155 nM
IC50 [1, 3]: 0.046 µg/mL
IC50 at 72 h ([2]; L929 mouse fibroblast cells): > 10 µg/mL

CC1(C)OB(O)c2cc(NC(=O)c3ccc(SC(F)(F)F)cc3)ccc21 [compound 54, N-(1-Hydroxy-3,3-dimethyl-1,3-dihydro-benzo[c][1,2]oxaborol-6-yl)-4-trifluoromethylsulfanyl-benzamide]
IC50 [1, 3]: 0.571 µg/mL
IC50 at 72 h ([2]; L929 mouse fibroblast cells): > 10 µg/mL

CC1(C)OB(O)c2cc(NC(=O)c3cc(C(F)(F)F)ccc3Cl)ccc21 [compound 90, 2-Chloro-N-(1-hydroxy-3,3-dimethyl-1,3-dihydro-benzo[c][1,2]oxaborol-6-yl)-5-trifluoromethyl-benzamide]
IC50 [1, 3]: 0.514 µg/mL
IC50 at 72 h ([2]; L929 mouse fibroblast cells): > 10 µg/mL

CCCc1ccc(C(=O)Nc2ccc3c(c2)B(O)OC3(C)C)c(Cl)c1 [compound 102, 2-Chloro-N-(1-hydroxy-3,3-dimethyl-1,3-dihydro-benzo[c][1,2]oxaborol-6-yl)-4-propyl-benzamide]
IC50 [1, 3]: 0.125 µg/mL
IC50 at 72 h ([2]; L929 mouse fibroblast cells): > 10 µg/mL

CC1(C)OB(O)c2cc(NC(=O)c3cc[nH]n3)ccc21 [compound 123, 1H-Pyrazole-3-carboxylic acid (1-hydroxy-3,3-dimethyl-1,3-dihydro-benzo[c][1,2]oxaborol-6-yl)-amide]
IC50 [1, 3]: > 5 µg/mL
IC50 at 72 h ([2]; L929 mouse fibroblast cells): > 10 µg/mL

CC1(C)OB(O)c2cc(NC(=O)c3c(F)cccc3F)ccc21 [compound 64, 2,6-Difluoro-N-(1-hydroxy-3,3-dimethyl-1,3-dihydro-benzo[c][1,2]oxaborol-6-yl)-benzamide]
IC50 [1, 3]: 0.724 µg/mL
IC50 at 72 h ([2]; L929 mouse fibroblast cells): > 10 µg/mL

CC1(C)OB(O)c2cc(NC(=O)c3c(F)ccc(F)c3Cl)ccc21 [compound 104, 2-Chloro-3,6-difluoro-N-(1-hydroxy-3,3-dimethyl-1,3-dihydro-benzo[c][1,2]oxaborol-6-yl)-benzamide]
IC50 [1, 3]: 1.12 µg/mL
IC50 at 72 h ([2]; L929 mouse fibroblast cells): > 10 µg/mL

CCCCCOc1ccc(C(=O)Nc2ccc3c(c2)B(O)OC3(C)C)cc1 [compound 50, N-(1-Hydroxy-3,3-dimethyl-1,3-dihydro-benzo[c][1,2]oxaborol-6-yl)-4-pentyloxy-benzamide]
IC50 [1, 3]: 1.4 µg/mL
IC50 at 72 h ([2]; L929 mouse fibroblast cells): > 10 µg/mL

CC1(C)OB(O)c2cc(NC(=O)c3cccc(Br)c3)ccc21 [compound 43, 3-Bromo-N-(1-hydroxy-3,3-dimethyl-1,3-dihydro-benzo[c][1,2]oxaborol-6-yl)-benzamide]
IC50 [1, 3]: 2.2 µg/mL
IC50 at 72 h ([2]; L929 mouse fibroblast cells): > 10 µg/mL

CC1(C)OB(O)c2cc(NC(=O)c3ccc(C#N)cc3)ccc21 [compound 57, 4-Cyano-N-(1-hydroxy-3,3-dimethyl-1,3-dihydro-benzo[c][1,2]oxaborol-6-yl)-benzamide]
IC50 [1, 3]: > 5 µg/mL
IC50 at 72 h ([2]; L929 mouse fibroblast cells): > 10 µg/mL

Cc1ccc(C(=O)Nc2ccc3c(c2)B(O)OC3(C)C)cc1 [compound 29, N-(1-Hydroxy-3,3-dimethyl-1,3-dihydro-benzo[c][1,2]oxaborol-6-yl)-4-methyl-benzamide]
IC50 [1, 3]: 3.62 µg/mL
IC50 at 72 h ([2]; L929 mouse fibroblast cells): > 10 µg/mL
